The assay deals with Zucker Fatty rats. Description: Evaluation of hypoglycemic action. Format: in vivo, rat. The conditions noted are these: gavage 3 mg/kg, HCl salt form, 2 or 4 hours after dosing. The procedure:
Zucker Fatty rats (male, 11-19 week-old, Charles River Japan, Inc.) known to spontaneously develop hyperglycemia were randomly assigned to the groups (6 per group). The animals were individually housed in a polycarbonate cage and allowed to drink water freely from a watering bottle. The animals in the compound groups were gavaged with compound No. 10, 87, 19, or 69 at the dose of 3 mg/kg. These compounds were used as HCl salt form thereof, converted by the method according to Example 3, step 6 from TFA salt form thereof upon the necessity. The animals in the control group were only treated with the vehicle (0.5% methylcellulose). Animals were allowed free access to the feed (CRF-1, Oriental Yeast Co., Ltd.) during the experiment. An aspirate of the blood (6 μL) was collected from the tail vein on the time point of immediately before dosing (time 0) as well as 2, 4, and 8 hours after dosing. The blood glucose levels were determined with ACCU-CHEK Aviva (Roche Diagnostics K.K.).
Regarding `CC(C)(Cc1ccc(C(=O)Oc2ccc(C(=N)N)cc2F)s1)C(=O)N[C@@H](C(=O)O)c1ccc(O)cc1` [Compound 69], the “blood glucose levels compared with vehicle group” value is reported as “significantly decreased”. Consider `CCC(CC)(Cc1ccc(C(=O)Oc2ccc(C(=N)N)cc2F)s1)C(=O)N[C@@H](CC(=O)O)C(=O)O.Cl` [Compound 19], for which the “blood glucose levels compared with vehicle group” value is “significantly decreased”. Regarding `CCCN(CC(=O)O)C(=O)C(C)(C)Cc1ccc(C(=O)Oc2ccc(C(=N)N)cc2F)s1.Cl` [Compound 10, N-{3-[5-(4-amidino-2-fluorophenoxycarbonyl)thiophen-2-yl]-2,2-dimethylpropionyl}-N-propylglycine hydrochloride], the “blood glucose levels compared with vehicle group” value was “significantly decreased”.

For the origin of these results see patent US9655879B2, “Heteroarylcarboxylic acid ester derivative” (EA Pharma Co., Ltd., priority 2012, dated 2017).
